Patent US20040180395A1, “Method for detecting calpain3 activity in a biological sample and peptides for implementing said method” (priority 2001, published 2004)
Primed or numbered codes have the meaning given here. The star is where a group is joined. Mca = COc1ccc2c(CC(=O)*)cc(=O)oc2c1; Dnp′ = not defined here

Tests used:
Calpain 1 = target: T1, Calpain 1 (Homo sapiens, UniProt P07384); test: Assay of specificity of autolytic-site peptide cleavage (FRET fluorescence) by commercial calpain 1; format: biochemical; conditions: calpain 1, human erythrocytes; 10 mM CaCl2; peptide 1.9 μM; 37° C.; FIG. 2
T1 construct: Calpain 1: human erythrocytes (Calbiochem); purchased Calbiochem; host or cells: human erythrocytes
T1 sequence (P07384 1-714): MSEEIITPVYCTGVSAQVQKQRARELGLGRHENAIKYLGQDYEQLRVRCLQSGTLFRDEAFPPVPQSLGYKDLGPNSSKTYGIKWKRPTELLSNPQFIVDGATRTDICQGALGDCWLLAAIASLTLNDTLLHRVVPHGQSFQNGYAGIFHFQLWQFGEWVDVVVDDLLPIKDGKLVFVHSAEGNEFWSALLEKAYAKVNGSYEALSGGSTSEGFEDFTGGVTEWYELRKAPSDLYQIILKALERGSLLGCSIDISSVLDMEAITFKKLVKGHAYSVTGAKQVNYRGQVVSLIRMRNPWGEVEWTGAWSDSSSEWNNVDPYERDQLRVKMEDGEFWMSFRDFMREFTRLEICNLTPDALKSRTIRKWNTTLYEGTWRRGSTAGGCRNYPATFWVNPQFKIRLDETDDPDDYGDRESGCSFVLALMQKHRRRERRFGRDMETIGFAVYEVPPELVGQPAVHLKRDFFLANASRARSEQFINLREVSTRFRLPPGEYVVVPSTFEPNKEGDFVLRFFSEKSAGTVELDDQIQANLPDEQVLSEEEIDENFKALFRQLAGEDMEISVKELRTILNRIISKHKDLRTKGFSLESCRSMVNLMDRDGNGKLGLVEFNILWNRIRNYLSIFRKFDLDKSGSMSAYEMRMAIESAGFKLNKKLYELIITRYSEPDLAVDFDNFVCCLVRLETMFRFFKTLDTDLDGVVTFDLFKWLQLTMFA
T1 sequence (P04632 1-268 partner): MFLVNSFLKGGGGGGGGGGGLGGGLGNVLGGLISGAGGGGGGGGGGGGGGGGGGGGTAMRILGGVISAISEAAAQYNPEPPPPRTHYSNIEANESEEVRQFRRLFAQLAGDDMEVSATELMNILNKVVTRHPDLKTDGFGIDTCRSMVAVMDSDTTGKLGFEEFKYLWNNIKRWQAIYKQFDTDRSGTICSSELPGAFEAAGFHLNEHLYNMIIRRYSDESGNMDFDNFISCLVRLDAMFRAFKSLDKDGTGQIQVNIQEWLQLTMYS
Experimental: (§1) 1/ Fluorometer: SpectraMax Gemini XS Microplate fluoro-meter (molecular Devices).
Calpain 1: human erythrocytes (Calbiochem)
(§2) Final volume of 200 μl; calcium (CaCl2) 10 mM final concentration; fluorescent peptides 1.9 μM final concentration.
(§3) The reaction is carried out at 37° C., either over one hour (with in this case measurement of fluorescence every 50 seconds) or over 6 hours (measurement every 2 minutes).
(§4) The medium is agitated between each measurement. The wavelengths used for detecting the fluorescence of the peptides are:
(§5) Excitation wavelengths of Mca: 325 nm.
(§6) Emission wavelengths of […]: 392 nm.
(§7) Resuspension buffer for commercial calpains: 100 mM NaCl, 5 mM EDTA, 50 Mm TrisHCl, 5 mM β-mercaptoethanol, 40% glycerol, pH=7.8. Storage at ambient temperature. Resuspension buffer for the fluorescent peptides: the peptides are resuspended at 1 mg/ml in 100% DMSO.
(§8) Reaction buffer: 100 mM NaCl, 50 mM HEPES, 10 mM DTT, 1 mM EDTA, 10% glycerol, 0.1% CHAPS, 100 ng/μl BSA, pH=7.4, filtration. Storage at ambient temperature.
(§9) Before verifying whether calpain 3 can cleave the peptides corresponding to its autolytic sites, a first assay consisted in verifying that these peptides (site 1, site 2, site 3) could not be cleaved by other proteases, in particular by ubiquitous calpains (see FIG. 2).

calpain 3 [1] = test: Cleavage of autolytic-site peptides by extracts of C2C12 cells transfected or not transfected with the plasmid encoding calpain 3; format: biochemical, murine; conditions: FIG. 3; for difference in cleavage activity between calpain 3-transfected and untransfected cells: C2C12 extracts, efficiency of transfection less than 10%; for activity of C2C12 extracts on the peptide (fluorescence): transfected or untransfected C2C12 extracts
Experimental: as §2, §3, §5, §6, §8
Cell Lines Used: C2C12: murine myoblasts;
Medium used for C2C12: DMEM+10% FCS
The desired cells are trypsinized and then the wells are seeded in such a way that the cells are at 50-80% confluency the following day.
Allow the cells to grow at 37° C./7% CO2.
(§10) Principle: The animal cells, which may or may not be transfected, are lysed for the purpose of preparing protein extracts the properties of which may be studied.
(§11) The culture medium is removed from the wells and the wells are washed with PBS (phosphate buffered Dulbecco solution (without calcium, or magnesium, or sodium bicarbonate)—Gibco BRL).
(§12) The cells are harvested and centrifuged at 500 g for 10 min at 4° C.
(§13) The supernatant is removed and the cells are taken up in the lysis buffer (50 mM HEPES, 1 mM DTT, 0.1 mM EDTA, 0.1% CHAPS, pH=7.4) in a proportion of 700 μl of lysis buffer per well.
(§14) The buffer is allowed to act at 4° C. for 5 minutes. Centrifugation is carried out at 10 000 g/10 minutes/4° C.
(§15) The supernatant is recovered and stored at −20° C.
It is known that calpain 3 has greater stability in muscle cells due to the presence of titin. For the purpose of proving that calpain 3 could cleave its own autolytic sites, it was therefore overexpressed in C2C12 cells by transfecting these cells with a plasmid encoding calpain 3. A control transfection with pECFP was carried out at the same time as the transfection with the plasmid encoding calpain 3. The efficiency of transfection on the C2C12s is less than 10%. The proteins were then extracted and their activity was assayed on the autolytic sites (FIG. 3).

calpain 3 [2] = test: Cleavage of autolytic-site peptides by extracts of normal (+/+) or calpain 3-deficient (−/−) mouse myoblasts; format: biochemical; conditions: myoblast extracts; for cleavage activity on the peptide / difference in cleavage activity between +/+ and −/− cells: reaction over 1 h, FIG. 4; for cleavage activity, +/+ versus −/− cell extracts: reaction over 6 h, FIG. 6
Experimental: as §2, §3, §5, §6, §8, §10, §11, §12, §13, §14, §15
The system is then assayed on extracts of cell cultures deficient or not deficient in calpain 3. To do this, mice deficient for the calpain 3 gene, for which myogenic cell cultures have been derived [Richard, 2000], are used. Extracts of cultures of calpain 3-deficient muscle cells (−/−cells) can therefore be compared with extracts of cultures of normal muscle cells (+/+cells). Initially, the assay was carried out on undifferentiated cells (myoblasts) (FIG. 4).

Calpain 2 = target: T2, Calpain 2 (Rattus norvegicus, UniProt Q07009); test: Assay of specificity of autolytic-site peptide cleavage (FRET fluorescence) by commercial calpain 2; format: biochemical; conditions: calpain 2, rat recombinant; 10 mM CaCl2; peptide 1.9 μM; 37° C.; FIG. 2
T2 construct: purchased Calbiochem; host or cells: E. coli
T2 sequence (Q07009 1-700): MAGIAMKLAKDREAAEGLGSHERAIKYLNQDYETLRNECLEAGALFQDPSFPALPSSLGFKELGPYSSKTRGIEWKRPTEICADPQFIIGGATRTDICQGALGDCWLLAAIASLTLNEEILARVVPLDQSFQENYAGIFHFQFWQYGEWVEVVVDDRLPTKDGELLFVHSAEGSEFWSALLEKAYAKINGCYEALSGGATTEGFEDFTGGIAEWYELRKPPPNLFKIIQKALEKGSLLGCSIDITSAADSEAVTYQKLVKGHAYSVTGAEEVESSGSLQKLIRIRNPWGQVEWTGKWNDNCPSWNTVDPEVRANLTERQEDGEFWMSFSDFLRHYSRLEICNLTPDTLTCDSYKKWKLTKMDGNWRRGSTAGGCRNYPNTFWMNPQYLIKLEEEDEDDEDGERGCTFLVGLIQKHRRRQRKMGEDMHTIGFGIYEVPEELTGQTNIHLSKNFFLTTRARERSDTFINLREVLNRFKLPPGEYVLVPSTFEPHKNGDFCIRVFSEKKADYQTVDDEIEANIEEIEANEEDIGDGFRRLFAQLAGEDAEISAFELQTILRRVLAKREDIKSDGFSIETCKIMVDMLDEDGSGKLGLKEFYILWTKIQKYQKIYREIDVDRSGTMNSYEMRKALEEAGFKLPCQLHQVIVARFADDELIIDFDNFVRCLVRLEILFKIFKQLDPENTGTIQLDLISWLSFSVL
T2 sequence (Q64537 87-270 partner limits assumed): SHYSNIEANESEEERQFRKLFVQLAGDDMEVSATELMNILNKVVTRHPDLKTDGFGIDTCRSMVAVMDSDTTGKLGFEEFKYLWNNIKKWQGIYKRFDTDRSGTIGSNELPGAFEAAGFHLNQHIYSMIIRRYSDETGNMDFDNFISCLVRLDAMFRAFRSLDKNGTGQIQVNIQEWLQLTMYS
Experimental: as §1
Calpain 2: rat, recombinant, E. coli (Calbiochem)
as §2, §3, §4, §5, §6, §7, §8, §9

calpain 3 [3] = test: Cleavage of autolytic-site peptides by extracts of normal (+/+) or calpain 3-deficient (−/−) mouse quadriceps; format: biochemical; conditions: quadriceps lysates, over 6 hours; FIG. 7
Experimental: as §2, §3, §5, §6, §8
Principle: The muscles are ground for the purpose of preparing protein extracts the properties of which may then be studied.
Material: Quadriceps of normal mice and of calpain 3-deficient mice.
The muscles are ground in liquid nitrogen. The ground material is resuspended in the lysis buffer (cf. composition in the cell lysis protocol above) in a proportion of 19 μl of lysis buffer per milligram of ground tissue.
The buffer is allowed to act for 10 minutes in ice. Centrifugation is carried out at 10 000 g for 10 minutes at 4° C.
as §15
Activity assays were also carried out on lysates of muscles from mice deficient or not deficient in calpain 3. The assays were carried out using quadriceps lysates (FIG. 7).

calpain 3 [4] = test: Cleavage of autolytic site 3 peptide by extracts of normal (+/+) or calpain 3-deficient (−/−) mouse myotubes; format: biochemical; conditions: myotube extracts; FIG. 5
Experimental: as §2, §3, §5, §6, §8, §10, §11, §12, §13, §14, §15
Specifically, calpain 3 is theoretically expressed more in myotubes than in myoblasts.

cleavage activity on the peptide (fluorescence over time vs peptide without enzyme) (Calpain 1)	cleavage activity on the peptide (fluorescence over time vs peptide without enzyme) (Calpain 2)	Substance	difference in cleavage activity between calpain 3-transfected and untransfected cells (calpain 3 [1])	activity of C2C12 extracts on the peptide (fluorescence) (calpain 3 [1])	cleavage activity on the peptide (calpain 3 [2])	difference in cleavage activity between +/+ and −/− cells (calpain 3 [2])	cleavage activity, +/+ versus −/− cell extracts (calpain 3 [2])	activity of cleavage, +/+ versus −/− tissue extracts (calpain 3 [3])	cleavage activity, −/− versus +/+ cell extracts (calpain 3 [4])
no cleavage activity	no cleavage activity	Mca-NMTYGTS-Dnp (Mca-NMTYGTS-{Dnp′}) [site 1, fluorescent FRET peptide of calpain 3 autolytic site 1, Mca donor and Dnp acceptor]	no difference can be detected	slight increase in fluorescence	low cleavage activity	very small	greater in extracts of +/+cells	by the +/+ tissue extracts is greater than that of the −/−tissue extracts	–
no cleavage activity	no cleavage activity	Mca-NMDNISLL-Dnp [site 2]	no difference can be detected	slight increase in fluorescence	No cleavage activity could be detected	–	greater in extracts of +/+cells	by the +/+ tissue extracts is greater than that of the −/−tissue extracts	–
no cleavage activity	no cleavage activity	Mca-PVQYETR-Dnp (Mca-PVQYETR-{Dnp′}) [site 3, fluorescent FRET peptide of calpain 3 autolytic site 3, Mca donor and Dnp acceptor]	greater in the transfected cells	–	Cleavage activity is detected	no difference in activity is visible	greater in extracts of −/−cells than in extracts of +/+cells	by the −/−tissue extracts is greater than that of the +/+tissue extracts	in the extracts of −/−cells is greater than in the extracts of +/+cells
